Among the data in the Kinase Knowledgebase extract (Sharma et al. 2016) are EC50 and IC50 values, retold here.

For orientation: EC50 means the midpoint of the concentration-response curve. As usually defined, the IC50 is the concentration that gives 50% inhibition. Low values mean greater potency, high ones weaker potency.

Experiment [1] deals with PIK3CA (human) (UniProt P42336). Description: Inhibition of A2780 Cell Proliferation.
Experiment [2] shares this target. In words: Inhibition of PIK3CA Kinase Activity.

PIK3CA (human), sequence (P42336 whole entry, looked up): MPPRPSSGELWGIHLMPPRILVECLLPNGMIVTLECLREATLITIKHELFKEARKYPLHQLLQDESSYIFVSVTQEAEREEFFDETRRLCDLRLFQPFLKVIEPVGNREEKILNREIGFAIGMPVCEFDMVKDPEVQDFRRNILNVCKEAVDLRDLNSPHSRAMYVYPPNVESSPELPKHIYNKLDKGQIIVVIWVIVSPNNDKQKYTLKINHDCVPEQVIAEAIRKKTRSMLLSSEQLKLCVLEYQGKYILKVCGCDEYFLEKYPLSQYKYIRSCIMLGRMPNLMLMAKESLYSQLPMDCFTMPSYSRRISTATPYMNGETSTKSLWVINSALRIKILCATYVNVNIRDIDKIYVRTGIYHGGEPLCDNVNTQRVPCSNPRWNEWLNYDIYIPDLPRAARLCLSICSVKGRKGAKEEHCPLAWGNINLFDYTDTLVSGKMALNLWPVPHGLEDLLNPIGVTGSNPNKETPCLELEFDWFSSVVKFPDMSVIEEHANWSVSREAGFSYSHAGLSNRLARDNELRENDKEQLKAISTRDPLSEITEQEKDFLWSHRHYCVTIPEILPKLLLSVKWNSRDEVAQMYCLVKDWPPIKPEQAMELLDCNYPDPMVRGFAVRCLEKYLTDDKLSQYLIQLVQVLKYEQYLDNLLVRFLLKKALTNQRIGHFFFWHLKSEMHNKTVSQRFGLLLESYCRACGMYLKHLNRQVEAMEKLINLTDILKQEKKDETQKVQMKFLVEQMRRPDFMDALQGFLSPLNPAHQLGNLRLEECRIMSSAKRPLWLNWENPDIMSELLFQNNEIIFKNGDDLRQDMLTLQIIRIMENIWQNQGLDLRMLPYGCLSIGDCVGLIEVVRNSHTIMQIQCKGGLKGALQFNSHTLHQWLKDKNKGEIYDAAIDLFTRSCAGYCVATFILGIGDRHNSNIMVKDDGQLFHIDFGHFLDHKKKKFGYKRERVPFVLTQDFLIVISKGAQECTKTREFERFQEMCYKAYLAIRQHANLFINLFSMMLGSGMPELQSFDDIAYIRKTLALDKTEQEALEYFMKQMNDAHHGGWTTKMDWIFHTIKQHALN

Compound `CNCC(=O)Nc1cn2cc(-c3cnc(N)c(OCCOC)n3)ccc2n1` yielded an EC50 in experiment [1] of under 10 µM. Moreover, the IC50 in experiment [2] is under 1 µM. Regarding `CC(=O)Nc1cn2cc(-c3cnc(N)c(OC4CCNCC4)n3)ccc2n1`, the EC50 in experiment [1] is under 25 µM. `Nc1ncc(-c2ccc3nc(NC(=O)N4CCC(C(=O)O)C4)cn3c2)cc1C(F)(F)F` (stereo unspecified) gave a 50% effective concentration (EC50) in experiment [1] of under 25 µM. Besides, the concentration for half-maximal inhibition (IC50) in experiment [2] was under 1 µM. In experiment [1], `Nc1ncc(-c2ccc3nc(NC(=O)CO[C@H]4CCNC4)cn3n2)cc1C(F)(F)F` gave a concentration giving a half-maximal response (EC50) of under 1 µM. Further, the IC50 in experiment [2] was under 1 µM.

The compound `CC(=O)Nc1nc2ccc(-c3cnc(N)c(C(F)(F)F)c3)cn2c1C(N)=O` gave an EC50 in experiment [1] of under 10 µM. The same compound gave a half-maximal inhibitory concentration (IC50) in experiment [2] of under 1 µM.

Turning to `CC(=O)Nc1cn2nc(-c3cnc(N)c(C(=O)NCCN)c3)ccc2n1`, the EC50 in experiment [1] is under 25 µM. For the same compound, in experiment [2], the 50% inhibitory concentration (IC50) is under 1 µM.

`N#Cc1ccc(C(=O)Nc2cn3cc(-c4cnc(N)c(C(F)(F)F)c4)ccc3n2)cc1` displayed an EC50 in experiment [1] of under 25 µM. In addition, the 50% inhibitory concentration (IC50) in experiment [2] was under 1 µM. In the same order, the values of `CC(=O)Nc1cn2cc(-c3cnc(N)c(-c4ccccc4)c3)ccc2n1` are under 10 µM and under 1 µM. The matching figures for `Nc1ccc(-c2ccc3nc(NC(=O)OCCN4CCOCC4)sc3c2)cn1`: under 25 µM and under 1 µM. For `CC(=O)Nc1cn2cc(-c3cnc(N)c(F)c3)ccc2n1`, the half-maximal effective concentration (EC50) in experiment [1] was under 25 µM. In experiment [2], this compound came in with an IC50 of under 1 µM.

`CC(=O)Nc1cn2nc(-c3cnc(N)c(C(=O)O)c3)ccc2n1` registered an EC50 in experiment [1] of under 25 µM. The compound also had an IC50 in experiment [2] of under 1 µM. Consider `Nc1ncc(-c2ccc3nc(NC(=O)COCc4ccccc4)cn3n2)cc1C(F)(F)F`, for which, in experiment [1], the EC50 was under 10 µM. Besides, the IC50 in experiment [2] is under 1 µM. Turning to `CC(=O)Nc1nc2ccc(-c3cnc(N)c(C(F)(F)F)c3)cn2c1CCc1ccccc1`, in experiment [1], the EC50 is under 10 µM. Also, in experiment [2], the IC50 was under 1 µM.

With `CCN(CC)Cc1cc(-c2ccc3nc(NC(C)=O)cn3c2)cnc1N`, the concentration for a half-maximal effect (EC50) in experiment [1] is under 25 µM. For the same compound, the concentration for half-maximal inhibition (IC50) in experiment [2] was under 1 µM.

For `CC(=O)Nc1cn2cc(-c3cnc(N)c(C(=O)NCCN4CCCC4)n3)ccc2n1`, the half-maximal effective concentration (EC50) in experiment [1] is under 1 µM. This compound also yielded a half-inhibitory concentration (IC50) in experiment [2] of under 1 µM. For the compound `CC(C)(C)OC(=O)NCC(=O)Nc1cn2cc(-c3cnc(N)c(C(F)(F)F)c3)ccc2n1`, in experiment [1], the concentration for a half-maximal effect (EC50) was under 10 µM. The IC50 in experiment [2] was under 1 µM. In the case of `Nc1ncc(-c2ccc3nc(NC(=O)C(F)(F)F)cn3c2O)cc1C(F)(F)F`, in experiment [1], the concentration giving a half-maximal response (EC50) is under 25 µM. Further, the IC50 in experiment [2] was under 10 µM. Take `CC(=O)Nc1cn2cc(-c3cnc(N)c(OC4CCC4)n3)ccc2n1`: the concentration for a half-maximal effect (EC50) in experiment [1] is under 1 µM. Further, in experiment [2], the IC50 is under 1 µM.

With `COCC(=O)Nc1cn2cc(-c3cnc(N)c(OCC(F)(F)F)n3)ccc2n1`, in experiment [1], the EC50 is under 1 µM. Moreover, in experiment [2], the IC50 is under 1 µM. Consider `CC(=O)Nc1cn2cc(-c3cnc(N)c(C(=O)N4CCN(C(=O)OC(C)(C)C)CC4)c3)ccc2n1`, for which the EC50 in experiment [1] was under 25 µM. Moreover, in experiment [2], the IC50 was under 1 µM.

In turn, `CCNN=Cc1cc(-c2ccc3nc(NC(C)=O)cn3c2)cnc1N` came in with an EC50 in experiment [1] of under 10 µM. Besides, the IC50 in experiment [2] is under 1 µM.

As to `CC(C)(C)OC(=O)N1CC[C@H](OCC(=O)Nc2cn3nc(-c4cnc(N)c(C(F)(F)F)c4)ccc3n2)C1`, the EC50 in experiment [1] was under 1 µM. This compound also showed a half-maximal inhibitory concentration (IC50) in experiment [2] of under 1 µM. `CC(C)(C)OC(=O)N1CC[C@H]1C(=O)Nc1cn2cc(-c3cnc(N)c(C(F)(F)F)c3)ccc2n1` returned an EC50 in experiment [1] of under 25 µM. In experiment [2], this compound registered an IC50 of under 1 µM. `CC(=O)Nc1nc2ccc(-c3cnc(N)c(C(=O)N4CCOCC4)c3)cc2s1` returned a concentration giving a half-maximal response (EC50) in experiment [1] of under 10 µM. The IC50 in experiment [2] was under 1 µM. In experiment [1], `CC(=O)Nc1nc2ccc(-c3cnc(N)c(C(F)(F)F)c3)cn2c1C#Cc1ccccn1` had an EC50 of under 10 µM. This compound also showed a half-maximal inhibitory concentration (IC50) in experiment [2] of under 1 µM. `CC(=O)Nc1cn2cc(-c3cnc(N)cc3F)ccc2n1` displayed an EC50 in experiment [1] of under 25 µM. The compound further yielded a half-maximal inhibitory concentration (IC50) in experiment [2] of under 1 µM. `Nc1ncc(-c2ccc3nc(NC(=O)C4CNC4)cn3n2)cc1Cl`: the EC50 in experiment [1] was under 25 µM. The same compound had an IC50 in experiment [2] of under 1 µM. Compound `CC(C)(C)OC(=O)NCC(=O)Nc1cn2nc(-c3cnc(N)c(C(F)(F)F)c3)ccc2n1` registered a concentration giving a half-maximal response (EC50) in experiment [1] of under 10 µM. In addition, the IC50 in experiment [2] is under 1 µM. On to `NC(=O)N1CC[C@H]1C(=O)Nc1cn2cc(-c3cnc(N)c(C(F)(F)F)c3)ccc2n1`, for which the 50% effective concentration (EC50) in experiment [1] was under 25 µM. In experiment [2], this compound returned a half-inhibitory concentration (IC50) of under 1 µM.

`COc1cc(-c2ccc3nc(NC(C)=O)cn3c2)c(C)nc1N` returned an EC50 in experiment [1] of under 10 µM. Also, the IC50 in experiment [2] was at least 25 µM. For `COc1ccc(CC(=O)Nc2cn3cc(-c4cnc(N)c(C(F)(F)F)c4)ccc3n2)cc1OC`, the EC50 in experiment [1] is under 10 µM. In experiment [2], this compound came in with an IC50 of under 1 µM. In experiment [1], `Nc1ccc(C(=O)Nc2nc3ccc(-c4cnc(N)c(C(F)(F)F)c4)cc3s2)cn1` registered a concentration giving a half-maximal response (EC50) of under 1 µM. This compound also yielded an IC50 in experiment [2] of under 1 µM.

As to `CC(C)(C)OC(=O)N1CC(C(=O)Nc2cn3cc(-c4cnc(N)c(C(F)(F)F)c4)ccc3n2)C1`, in experiment [1], the half-maximal effective concentration (EC50) was under 10 µM. For the same compound, the concentration for half-maximal inhibition (IC50) in experiment [2] is under 1 µM. Take `Nc1ncc(-c2ccc3nc(NC(=O)[C@H]4CCCCN4)cn3c2)cc1C(F)(F)F`: in experiment [1], the EC50 was under 10 µM. In addition, the IC50 in experiment [2] is under 1 µM. For the compound `CC(=O)Nc1cn2nc(-c3cnc(N)c(-c4ccccc4C(F)(F)F)c3)ccc2n1`, in experiment [1], the EC50 was under 1 µM. The same compound yielded an IC50 in experiment [2] of under 1 µM. Turning to `CC(=O)Nc1cn2cc(-c3cnc(N)c(C#N)c3)ccc2n1`, in experiment [1], the concentration for a half-maximal effect (EC50) is under 10 µM. Moreover, the concentration for half-maximal inhibition (IC50) in experiment [2] was under 1 µM. In experiment [1], `CC(=O)Nc1nc2cc(F)c(-c3cnc(N)c(C(F)(F)F)c3)cc2s1` came in with an EC50 of under 25 µM. In addition, in experiment [2], the half-inhibitory concentration (IC50) was under 1 µM. As to `Nc1ncc(-c2ccc3nc(NC(=O)CN4CCCCC4)cn3c2)cc1C(F)(F)F`, the EC50 in experiment [1] is under 10 µM. The half-maximal inhibitory concentration (IC50) in experiment [2] is under 1 µM.

For the compound `CC(=O)Nc1cn2cc(-c3cnc(N)c(-c4ccccc4OC(F)(F)F)c3)ccc2n1`, the EC50 in experiment [1] was under 10 µM. Also, in experiment [2], the IC50 is under 1 µM. The matching figures for `CC(=O)Nc1cn2cc(-c3cnc(N)c(OC4CNC4)n3)ccc2n1`: under 25 µM and under 1 µM. The matching figures for `CCN1CCN(CCCC(=O)Nc2cn3cc(-c4cnc(N)c(C(F)(F)F)c4)ccc3n2)CC1`: under 10 µM and under 1 µM. `CCN1CCC(Oc2nc(-c3ccc4nc(NC(C)=O)cn4c3)cnc2N)CC1` showed a concentration giving a half-maximal response (EC50) in experiment [1] of under 10 µM. As to `COCCOc1nc(-c2ccc3nc(NC(C)=O)cn3n2)cnc1N`, in experiment [1], the EC50 was under 10 µM.

For `CNC(=O)[C@@H]1CCCN1C(=O)Nc1cn2cc(-c3cnc(N)c(C(F)(F)F)c3)ccc2n1`, in experiment [1], the EC50 is under 25 µM. As for `CC(C)(C)OC(=O)N1CCC1C(=O)Nc1cn2nc(-c3cnc(N)c(C(F)(F)F)c3)ccc2n1` (stereo unspecified), the EC50 in experiment [1] is under 25 µM. With `Nc1ncc(-c2ccc3nc(NC(=O)[C@@H]4CCCCN4)cn3c2)cc1C(F)(F)F`, in experiment [1], the concentration for a half-maximal effect (EC50) was under 10 µM.

Take `CC(=O)Nc1cn2nc(-c3cnc(N)c(OCC(F)(F)F)n3)ccc2n1`: in experiment [1], the EC50 was under 10 µM. Still for that read-out and setting: in the case of `NC(=O)[C@@H]1CCCN1C(=O)Nc1cn2cc(-c3cnc(N)c(C(F)(F)F)c3)ccc2n1` it was under 10 µM; in that of `CC(=O)N1CCCC[C@H]1C(=O)Nc1cn2cc(-c3cnc(N)c(C(F)(F)F)c3)ccc2n1`, under 25 µM; in that of `CC(C)C(=O)Nc1cn2cc(-c3cnc(N)c(C(F)(F)F)c3)ccc2n1`, under 25 µM.

In turn, `Nc1ncc(-c2ccc3nc(NC(=O)N4CCC[C@H]4C(=O)O)cn3c2)cc1C(F)(F)F` gave an IC50 in experiment [2] of under 10 µM.
